Like-named read-outs stand apart in the source and are kept apart here.
What was measured:
PDK1 kinase = biological target: T1, PDK1 kinase (Homo sapiens, UniProt O15530); assay: PDK1 Kinase Alpha Screen Assay; format: biochemical
T1 sequence (O15530 1-556): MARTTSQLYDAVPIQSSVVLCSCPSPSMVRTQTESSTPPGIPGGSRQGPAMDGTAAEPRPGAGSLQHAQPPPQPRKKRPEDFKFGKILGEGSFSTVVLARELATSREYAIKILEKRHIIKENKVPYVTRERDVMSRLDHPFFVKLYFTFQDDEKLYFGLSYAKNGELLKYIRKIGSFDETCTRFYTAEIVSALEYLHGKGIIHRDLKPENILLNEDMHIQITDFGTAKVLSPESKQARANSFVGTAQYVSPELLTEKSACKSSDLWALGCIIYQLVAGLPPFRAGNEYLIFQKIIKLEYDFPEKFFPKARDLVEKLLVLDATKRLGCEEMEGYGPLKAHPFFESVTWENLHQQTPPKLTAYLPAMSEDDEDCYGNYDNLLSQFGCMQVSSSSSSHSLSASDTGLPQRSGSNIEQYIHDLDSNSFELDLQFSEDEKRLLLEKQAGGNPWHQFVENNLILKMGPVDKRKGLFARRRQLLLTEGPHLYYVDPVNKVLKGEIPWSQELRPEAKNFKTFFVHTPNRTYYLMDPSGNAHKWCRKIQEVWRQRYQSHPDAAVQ
In short: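 PDK1 phosphorylated 50 nM biotinylated PDK1-4 peptide with 10 uM ATP in Tris pH 7.5, 10 mM MgCl2, 2 mM DTT, 2.5% DMSO for 3-18 hours. After EDTA stop, phosphopeptide was detected by AlphaScreen using phospho-(Ser/Thr) PKA substrate antibody with protein A/streptavidin beads, read after overnight incubation.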

PC-3 cells = assay: Cell Proliferation Assay (Cell Titer Glo), PC-3 cell line; format: cell-based; settings: Homo sapiens, PC-3, PC3 cells; read-out: CPEC50 PC3
In short: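 PC-3 cells, 1000 cells/well, left to adhere 3-5 h, then exposed for 3 days at 37° C to compounds as 1:3 serial dilutions from 500× DMSO stocks diluted in growth medium. Medium then replaced with fresh medium and viability read by Cell Titer Glo luminescence.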

[1] = head of the second part of Table 4: BV11261, read-out: PDK1 BV11261

Row | Structure (SMILES) | IC50 (PDK1 kinase; read-out: PDK1 IC50) [µM] | EC50 (PC-3 cells) [µM] | IC50 (PDK1 kinase; [1]) [µM]
1 | Fc1cccc(Nc2ncc3cccc(-c4ccc(NCCN5CCCC5)nc4)c3n2)c1 [Compound 1020, N-(3-fluorophenyl)-8-(6-(2-(pyrrolidin-1-yl)ethylamino)pyridin-3-yl)quinazolin-2-amine] | < 5 | < 5 | –
2 | Cn1cnnc1-c1cccc(Nc2ncc3cccc(-c4ccc(NCCN5CCCC5)nc4)c3n2)c1 [Compound 1021, N-(3-(4-methyl-4H-1,2,4-triazol-3-yl)phenyl)-8-(6-(2-(pyrrolidin-1-yl)ethylamino)pyridin-3-yl)quinazolin-2-amine] | < 5 | < 5 | –
3 | c1cc(Nc2ncc3cccc(-c4ccc(NCCN5CCCC5)nc4)c3n2)cc(N2CCOCC2)c1 [Compound 1022, N-(3-morpholinophenyl)-8-(6-(2-(pyrrolidin-1-yl)ethylamino)pyridin-3-yl)quinazolin-2-amine] | < 5 | < 5 | –
4 | FC(F)(F)c1cccc(Nc2ncc3cccc(-c4ccc(NCCN5CCCC5)nc4)c3n2)c1 [Compound 1023, 8-(6-(2-(pyrrolidin-1-yl)ethylamino)pyridin-3-yl)-N-(3-(trifluoromethyl)phenyl)quinazolin-2-amine] | < 5 | < 5 | –
5 | CC(=O)Nc1ccc(Nc2ncc3cccc(-c4ccc(NCCN5CCCC5)nc4)c3n2)cc1Cl [Compound 1024, N-(2-chloro-4-(8-(6-(2-(pyrrolidin-1-yl)ethylamino)pyridin-3-yl)quinazolin-2-ylamino)phenyl)acetamide] | < 5 | < 5 | –
6 | CC(C)Cn1cc(-c2ccc3cnc(Nc4ccc(N5CCN(C)CC5)cc4)nc3c2)cn1 [Compound 1025, 7-(1-isobutyl-1H-pyrazol-4-yl)-N-(4-(4-methylpiperazin-1-yl)phenyl)quinazolin-2-amine] | < 5 | < 5 | –
7 | Cc1ccc(Nc2ncc3ccc(O)c(C4CCN(C(C)C)CC4)c3n2)cc1NS(C)(=O)=O [Compound 1026, N-(5-(7-hydroxy-8-(1-isopropylpiperidin-4-yl)quinazolin-2-ylamino)-2-methylphenyl)methanesulfonamide] | < 5 | < 5 | –
8 | CC(=O)Nc1ccc(Nc2ncc3cccc(-c4ccc(NCCN5CCCC5)nc4)c3n2)cc1C [Compound 1027, N-(2-methyl-4-(8-(6-(2-(pyrrolidin-1-yl)ethylamino)pyridin-3-yl)quinazolin-2-ylamino)phenyl)acetamide] | < 5 | < 5 | –
9 | CS(=O)(=O)c1ccc(Nc2ncc3cccc(-c4ccc(NCCN5CCCC5)nc4)c3n2)cc1 [Compound 1028, N-(4-(methylsulfonyl)phenyl)-8-(6-(2-(pyrrolidin-1-yl)ethylamino)pyridin-3-yl)quinazolin-2-amine] | < 5 | 5 to 10 | –
10 | CN1CCN(c2ccc(-c3cccc4cnc(Nc5ccc(S(=O)(=O)N6CCOCC6)cc5)nc34)cn2)CC1 [Compound 1029, 8-(6-(4-methylpiperazin-1-yl)pyridin-3-yl)-N-(4-(morpholinosulfonyl)phenyl)quinazolin-2-amine] | < 5 | < 5 | –
11 | Cc1cc(Nc2ncc3ccc(O)c(C4CCN(C(C)C)CC4)c3n2)ccc1F [Compound 1030, 2-(4-fluoro-3-methylphenylamino)-8-(1-isopropylpipenidin-4-yl)quinazolin-7-ol] | < 5 | 5 to 10 | –
12 | C#Cc1cc(OC2CCCNCC2)c2nc(Nc3ccc(N4CCOCC4)cc3)ncc2c1 (stereo not drawn) [Compound 1031, 8-(azepan-4-yloxy)-6-ethynyl-N-(4-morpholinophenyl)quinazolin-2-amine] | – | < 5 | < 5
13 | C#Cc1cc(OC2CCNCC2)c2nc(Nc3ccc(C(=O)N4CCOCC4)cc3)ncc2c1Cl [Compound 1032, (4-(5-chloro-6-ethynyl-8-(piperidin-4-yloxy)quinazolin-2-ylamino)phenyl)(morpholino)methanone] | – | < 5 | < 5
14 | COc1c(-c2cnn(C)c2)cc(Cl)c2cnc(Nc3ccc(C(=O)N4CCOCC4)cc3)nc12 [Compound 1033, (4-(5-chloro-8-methoxy-7-(1-methyl-1H-pyrazol-4-yl)quinazolin-2-ylamino)phenyl)(morpholino)methanone] | – | < 5 | < 5
15 | COc1c(-c2cnn(C)c2)cc(Cl)c2cnc(Nc3ccc(C(=O)NC(C)C)cc3)nc12 [Compound 1034, 4-(5-chloro-8-methoxy-7-(1-methyl-1H-pyrazol-4-yl)quinazolin-2-ylamino)-N-isopropylbenzamide] | – | < 5 | < 5
16 | COc1c(-c2cnn(C)c2)cc(Cl)c2cnc(Nc3ccc(N4CCOCC4)cc3)nc12 [Compound 1035, 5-chloro-8-methoxy-7-(1-methyl-1H-pyrazol-4-yl)-N-(4-morpholinophenyl)quinazolin-2-amine] | – | < 5 | < 5

The remaining lines, values ahead:

Row | IC50 (PDK1 kinase; read-out: PDK1 IC50) [µM] | EC50 (PC-3 cells) [µM] | IC50 (PDK1 kinase; [1]) [µM] | Structure (SMILES)
17 | < 5 | < 5 | – | CNS(=O)(=O)Cc1ccc(Nc2ncc3cccc(-c4ccc(NCCN5CCCC5)nc4)c3n2)cc1 [Compound 998, N-methyl-1-(4-(8-(6-(2-(pyrrolidin-1-yl)ethylamino)pyridin-3-yl)quinazolin-2-ylamino)phenyl)methanesulfonamide]
18 | < 5 | < 5 | – | CN1CCN(c2ccc(-c3cccc4cnc(Nc5ccc(F)cc5)nc34)cn2)CC1 [Compound 999, N-(4-fluorophenyl)-8-(6-(4-methylpiperazin-1-yl)pyridin-3-yl)quinazolin-2-amine]
19 | < 5 | < 5 | – | O=c1[nH]c2ccc(Nc3ncc4cccc(-c5ccc(NCCN6CCCC6)nc5)c4n3)cc2[nH]1 [Compound 1000, 5-(8-(6-(2-(pyrrolidin-1-yl)ethylamino)pyridin-3-yl)quinazolin-2-ylamino)-1H-benzo[d]imidazol-2(3H)-one]
20 | < 5 | < 5 | – | Cc1ccc(Nc2ncc3cccc(-c4ccc(NCCN5CCCC5)nc4)c3n2)cc1NS(C)(=O)=O [Compound 1001, N-(2-methyl-5-(8-(6-(2-(pyrrolidin-1-yl)ethylamino)pyridin-3-yl)quinazolin-2-ylamino)phenyl)methanesulfonamide]
21 | < 5 | < 5 | – | CC(C)NS(=O)(=O)c1ccc(Nc2ncc3cccc(-c4ccc(NCCN5CCCC5)nc4)c3n2)cc1 [Compound 1016, N-isopropyl-4-(8-(6-(2-(pyrrolidin-1-yl)ethylamino)pyridin-3-yl)quinazolin-2-ylamino)benzenesulfonamide]
22 | < 5 | < 5 | – | Fc1ccc(Nc2ncc3cccc(-c4ccc(NCCN5CCCC5)nc4)c3n2)c(F)c1 [Compound 1017, N-(2,4-difluorophenyl)-8-(6-(2-(pyrrolidin-1-yl)ethylamino)pyridin-3-yl)quinazolin-2-amine]
23 | < 5 | < 5 | – | Fc1ccc(Nc2ncc3cccc(-c4ccc(NCCN5CCCC5)nc4)c3n2)cc1F [Compound 1018, N-(3,4-difluorophenyl)-8-(6-(2-(pyrrolidin-1-yl)ethylamino)pyridin-3-yl)quinazolin-2-amine]
24 | < 5 | < 5 | – | OCCc1ccc(Nc2ncc3cccc(-c4ccc(NCCN5CCCC5)nc4)c3n2)cc1 [Compound 1019, 2-(4-(8-(6-(2-(pyrrolidin-1-yl)elhylamino)pyridin-3-yl)quinazolin-2-ylamino)phenyl)ethanol]

Reference: patent publication US7932262B2 (Novartis AG, priority 2006, dated 2011)
